Source: US20230148184A1, “COMPOUNDS AND METHODS FOR MODULATING SPLICING” (REMIX THERAPEUTICS INC., priority 2020, published 2023)

Tests used:
Assay type in all cases: cell-based
HTT mRNA = assay: RT-qPCR splicing assay for HTT mRNA isoforms (canonical junction CJ and alternative junction AJ); details: A673 or K562 cell line, 24 hours compound treatment; for IC50: decrease in CJ mRNA; for AC50: increase in AJ mRNA
Description: (§1) Compounds described herein were used to modulate RNA transcript abundance in cells. The expression of a target mRNA was measured by detecting the formation of an exon-exon junction in the canonical transcript (CJ). A compound mediated exon-inclusion event was detected by observing an increase in formation of a new junction with an alternative exon (AJ). Real-time qPCR assays were used to detect these splicing switches and interrogate the potency of various compounds towards different target genes. A high-throughput real time quantitative PCR (RT-qPCR) assay was developed to measure these two isoforms of the mRNA (CJ and AJ) for an exemplary gene, HTT, together with a control housekeeping gene, GAPDH or GUSB or PPIA, used for normalization. Briefly, the A673 or K562 cell line was treated with various compounds described herein (e.g., compounds of Formula (I)). After treatment, the levels of the HTT mRNA targets were determined from each sample of cell lysate by cDNA synthesis followed by qPCR.
Cells-to-CT 1-step kit: ThermoFisher A25602, Cells-to-CT lysis reagent: ThermoFisher 4391851C, TaqMan™ Fast Virus 1-Step Master Mix: ThermoFisher 4444436 GAPDH: VIC-PL, ThermoFisher 4326317E (Assay: Hs99999905_m1)—used for K562/suspension cell lines GUSB: VIC-PL, ThermoFisher 4326320E (Assay: Hs99999908_m1)—used for K562/suspension cell lines PPIA: VIC-PL, ThermoFisher 4326316E (Assay: Hs99999904_m1)—used for A673/adherent cell lines
(§2) The A673 cell line was cultured in DMEM with 10% FBS. Cells were diluted with full growth media and plated in a 96-well plate (15,000 cells in 100 ul media per well). The plate was incubated at 37° C. with 5% CO2 for 24 hours to allow cells to adhere. An 11-point 3-fold serial dilution of the compounds was made in DMSO then diluted in media in an intermediate plate. Compounds were transferred from the intermediate plate to the cell plate with the top dose at a final concentration of 10 uM in the well. Final DMSO concentration was kept at or below 0.25%. The cell plate was returned to the incubator at 37° C. with 5% CO2 for an additional 24 hours.
(§3) The K562 cell line was cultured in IMDM with 10% FBS. For K562, cells were diluted with full growth media and plated in either a 96-well plate (50,000 cells in 50 uL media per well) or a 384-well plate (8,000-40,000 cells in 45 uL media per well). An 11-point 3-fold serial dilution of the compounds were made in DMSO then diluted in media in an intermediate plate. Compound was transferred from the intermediate plate to the cell plate with the top dose at a final concentration of 10 uM in the well. Final DMSO concentration was kept at or below 0.25%. Final volume was 100 uL for 96-well plate and 50 uL for 384-well plate. The cell plate was then placed in an incubator at 37° C. with 5% CO2 for 24 hours.
(§4) The cells were then gently washed with 50 uL-100 uL cold PBS before proceeding to addition of lysis buffer. 30 uL-50 uL of room temperature lysis buffer with DNAse I (and optionally RNAsin) was added to each well. Cells were shaken/mixed thoroughly at room temperature for 5-10 minutes for lysis to take place and then 3 uL-5 uL of room temperature stop solution was added and wells were shaken/mixed again. After 2-5 minutes, the cell lysate plate was transferred to ice for RT-qPCR reaction setup. The lysates could also be frozen at −80° C. for later use.
In some cases, a direct lysis buffer was used. An appropriate volume of 3× lysis buffer (10 mM Tris, 150 mM NaCl, 1.5%-2.5% Igepal and 0.1-1 U/uL RNAsin, pH 7.4) was directly added to either K562 or A673 cells in media and mixed by pipetting 3 times. The plates were then incubated at room temperature with shaking/rocking for 20-50 minutes to allow for lysis to take place. After this time, the cell lysate plate was transferred to ice to set up for the RT-qPCR reactions. The lysates could also be frozen at −80° C. for later use. […]

HTT CJ mRNA = assay: Gene panel canonical junction qPCR assay, HTT; details: decrease in CJ mRNA levels, RT-qPCR
Description: as §1, §2, §3, §4
(§5) In some cases, a direct lysis buffer was used. An appropriate volume of 3× lysis buffer (10 mM Tris, 150 mM NaCl, 1.5%-2.5% Igepal and 0.1-1 U/uL RNAsin, pH 7.4) was directly added to either K562 or A673 cells in media and mixed by pipetting 3 times. The plates were then incubated at room temperature with shaking/rocking for 20-50 minutes to allow for lysis to take place. After this time, the cell lysate plate was transferred to ice to set up for the RT-qPCR reactions. The lysates could also be frozen at −80° C. for later use.
(§6) To set up 10 uL RT-qPCR reactions, cell lysates were transferred to 384-well qPCR plates containing the master mix according to the table below. The plates were sealed, gently vortexed, and spun down before the run. The volumes were adjusted accordingly in some instances where the reaction was carried in 20 uL. The table below summarizes the components of the RT-qPCR reactions:
(§7) The RT-qPCR reaction was performed using a QuantStudio (ThermoFisher) under the following fast cycling conditions. […]

SMN2 CJ mRNA = assay: Gene panel canonical junction qPCR assay, SMN2; details: decrease in CJ mRNA levels, RT-qPCR
Description: as §1, §2, §3, §4, §5, §6, §7

Target C CJ mRNA = assay: Gene panel canonical junction qPCR assay, Target C; details: decrease in CJ mRNA levels, RT-qPCR
Description: as §1, §2, §3, §4, §5, §6, §7

| Structure (SMILES) | IC50 (HTT mRNA) [µM] | AC50 (HTT mRNA) [µM] | IC50 (HTT CJ mRNA) [µM] | IC50 (SMN2 CJ mRNA) [µM] | IC50 (Target C CJ mRNA) [µM] |
| --- | --- | --- | --- | --- | --- |
| CN(c1ccc2c(n1)OCc1cc(-c3cnc(=O)[nH]c3)ccc1-2)[C@@H]1C[C@H]2CC[C@@H](C1)N2 [Compound 161] | > 10 | > 10 | > 10 | > 10 | > 10 |
| CN(c1ccc2c(n1)OCCc1cc(-c3cn[nH]c3)ccc1-2)C1CC(C)(C)NC(C)(C)C1 [Compound 145] | > 10 | > 10 | > 10 | 1 to 10 | 1 to 10 |
| CCN(c1ccc2c(n1)OCc1cc(-n3cccn3)ccc1-2)[C@@H]1C[C@H]2CC[C@@H](C1)N2 [Compound 191] | 0.1 to 1 | 1 to 10 | 0.1 to 1 | 0.1 to 1 | 1 to 10 |
| CN(c1ccc2c(n1)OCc1cc(-c3cc(=O)n(C)cn3)ccc1-2)[C@@H]1C[C@H]2CC[C@@H](C1)N2 [Compound 162] | < 0.1 | < 0.1 | < 0.1 | < 0.1 | < 0.1 |
| CC1(C)CC(Nc2ccc3c(n2)CCOc2cc(-n4cccn4)ccc2-3)CC(C)(C)N1 [Compound 137, 13-(pyrazol-1-yl)-N-(2,2,6,6-tetramethylpiperidin-4-yl)-10-oxa-6-azatricyclo [9.4.0.0^[2,7]]pentadeca-1(11),2(7),3,5,12,14-hexaen-5-amine] | 1 to 10 | 1 to 10 | > 10 | > 10 | 1 to 10 |
| c1cnn(-c2ccc3c(c2)COc2nc(N4CC5(CCCNC5)C4)ccc2-3)c1 [Compound 168] | > 10 | > 10 | > 10 | > 10 | > 10 |
| c1cnn(-c2ccc3c(c2)COc2nc(OC4CCNCC4)ccc2-3)c1 [Compound 187] | 1 to 10 | > 10 | 1 to 10 | 1 to 10 | > 10 |
| CN(c1ccc2c(n1)OCc1cc(-c3ccc(=O)[nH]c3)ccc1-2)[C@@H]1C[C@H]2CC[C@@H](C1)N2 [Compound 157] | 1 to 10 | 1 to 10 | 1 to 10 | 0.1 to 1 | 1 to 10 |
| CN(C)[C@H]1[C@@H]2CN(c3ccc4c(n3)OCc3cc(-n5cccn5)ccc3-4)C[C@@H]21 [Compound 197] | 1 to 10 | > 10 | 1 to 10 | > 10 | > 10 |
| CCN(c1ccc2c(n1)OCc1cc(-n3cccn3)ccc1-2)[C@@H]1C[C@H]2CCC[C@@H](C1)N2 [Compound 195] | – | – | 0.1 to 1 | 0.1 to 1 | 1 to 10 |
| CN(c1ccc2c(n1)OCc1cc(-n3cccn3)ccc1-2)[C@H]1C[C@]2(C)CC[C@](C)(C1)N2 [Compound 180] | < 0.1 | < 0.1 | < 0.1 | < 0.1 | 0.1 to 1 |
| COc1cc(-c2ccc3c(c2)COc2nc(N(C)[C@@H]4C[C@H]5CC[C@@H](C4)N5)ccc2-3)cnn1 [Compound 159] | < 0.1 | < 0.1 | < 0.1 | < 0.1 | < 0.1 |
| c1cnn(-c2ccc3c(c2)COc2nc(N4CCCC5(CCNC5)C4)ccc2-3)c1 (stereo not shown) [Compound 192] | > 10 | > 10 | > 10 | > 10 | > 10 |
| CN(c1ccc2c(n1)OCCc1cc(-c3cn[nH]c3)ccc1-2)[C@@H]1C[C@H]2CC[C@@H](C1)N2 [Compound 146] | 1 to 10 | 1 to 10 | 1 to 10 | > 10 | > 10 |
| CN(c1ccc2c(n1)OCc1cc(-n3cc(N)cn3)ccc1-2)[C@@H]1C[C@H]2CC[C@@H](C1)N2 [Compound 172] | 0.1 to 1 | 0.1 to 1 | 0.1 to 1 | < 0.1 | 0.1 to 1 |
| CCN(c1ccc2c(n1)OCc1cc(-n3cccn3)ccc1-2)C1CCNCC1 [Compound 177] | > 10 | > 10 | > 10 | > 10 | > 10 |
| CN(c1ccc2c(n1)OCc1cc(-n3ccnc3)ccc1-2)[C@@H]1C[C@H]2CC[C@@H](C1)N2 [Compound 163] | < 0.1 | < 0.1 | < 0.1 | < 0.1 | 0.1 to 1 |
| c1cc2c(cc1-c1cn[nH]c1)OCCc1nc(N[C@@H]3C[C@H]4CC[C@@H](C3)N4)ccc1-2 [Compound 140, N-[(1R,3S,5S)-8-azabicyclo[3.2.1]octan-3-yl]-13-(1H-pyrazol-4-yl)-10-oxa-6-azatricyclo[9.4.0.0^[2,7]]pentadeca-1(11),2(7),3,5,12,14-hexaen-5-amine] | > 10 | > 10 | > 10 | > 10 | – |
| CN(c1ccc2c(c1)COc1cc(-n3cccn3)ccc1-2)[C@@H]1C[C@H]2CC[C@@H](C1)N2 [Compound 105] | > 10 | > 10 | > 10 | > 10 | – |
